Assay results from PubChem BioAssay (NCI).
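Five compound concentrations were applied to cells in 96-well plates for 48 hours; endpoints were derived by simple linear interpolation of the resulting dose-response curve. TGI denotes the concentration required for complete inhibition of growth.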

Tests used:
Assay in all cases: NCI-60 cell line screen, 48 h
SR leukemia = test system: SR leukemia
M14 melanoma = test system: M14 melanoma
UACC-62 melanoma = test system: UACC-62 melanoma
SF-295 CNS = test system: SF-295 CNS
T-47D breast = test system: T-47D breast
786-0 renal = test system: 786-0 renal
CAKI-1 renal = test system: CAKI-1 renal
UO-31 renal = test system: UO-31 renal
SNB-19 CNS = test system: SNB-19 CNS
SK-MEL-28 melanoma = test system: SK-MEL-28 melanoma
HOP-62 NSCLC = test system: HOP-62 NSCLC
HT29 colon = test system: HT29 colon
OVCAR-8 ovarian = test system: OVCAR-8 ovarian
PC-3 prostate = test system: PC-3 prostate
A549 NSCLC = test system: A549 NSCLC
IGROV1 ovarian = test system: IGROV1 ovarian
K-562 leukemia = test system: K-562 leukemia
DU-145 prostate = test system: DU-145 prostate
U251 CNS = test system: U251 CNS
HS 578T breast = test system: HS 578T breast
RPMI-8226 leukemia = test system: RPMI-8226 leukemia
HL-60(TB) leukemia = test system: HL-60(TB) leukemia
CCRF-CEM leukemia = test system: CCRF-CEM leukemia
OVCAR-4 ovarian = test system: OVCAR-4 ovarian
MOLT-4 leukemia = test system: MOLT-4 leukemia
MALME-3M melanoma = test system: MALME-3M melanoma
KM12 colon = test system: KM12 colon
MDA-N = test system: MDA-N
MDA-MB-231 breast = test system: MDA-MB-231 breast
SK-OV-3 ovarian = test system: SK-OV-3 ovarian
SW-620 colon = test system: SW-620 colon
NCI/ADR-RES ovarian = test system: NCI/ADR-RES ovarian
SF-539 CNS = test system: SF-539 CNS
OVCAR-5 ovarian = test system: OVCAR-5 ovarian
A498 renal = test system: A498 renal
SK-MEL-2 melanoma = test system: SK-MEL-2 melanoma
MDA-MB-435 = test system: MDA-MB-435
SN12C renal = test system: SN12C renal
SK-MEL-5 melanoma = test system: SK-MEL-5 melanoma
OVCAR-3 ovarian = test system: OVCAR-3 ovarian
HCT-15 colon = test system: HCT-15 colon
HCT-116 colon = test system: HCT-116 colon
HCC-2998 colon = test system: HCC-2998 colon
NCI-H23 lung = test system: NCI-H23 lung
COLO 205 colon = test system: COLO 205 colon
SF-268 CNS = test system: SF-268 CNS
LOX IMVI melanoma = test system: LOX IMVI melanoma
UACC-257 melanoma = test system: UACC-257 melanoma
NCI-H226 lung = test system: NCI-H226 lung
SNB-75 CNS = test system: SNB-75 CNS
MCF7 breast = test system: MCF7 breast
RXF 393 renal = test system: RXF 393 renal
TK-10 renal = test system: TK-10 renal
NCI-H522 lung = test system: NCI-H522 lung
NCI-H460 lung = test system: NCI-H460 lung
ACHN renal = test system: ACHN renal
EKVX NSCLC = test system: EKVX NSCLC
HOP-92 NSCLC = test system: HOP-92 NSCLC

Structure (SMILES): N=C(N)n1[nH]c2c(c1=O)CCCC2
- TGI (SR leukemia): > 100 µM
- TGI (M14 melanoma): > 100 µM
- TGI (UACC-62 melanoma): > 100 µM
- TGI (SF-295 CNS): > 100 µM
- TGI (T-47D breast): > 100 µM
- TGI (786-0 renal): > 100 µM
- TGI (CAKI-1 renal): > 100 µM
- TGI (UO-31 renal): > 100 µM
- TGI (SNB-19 CNS): > 100 µM
- TGI (SK-MEL-28 melanoma): > 100 µM
- TGI (HOP-62 NSCLC): > 100 µM
- TGI (HT29 colon): > 100 µM
- TGI (OVCAR-8 ovarian): > 100 µM
- TGI (PC-3 prostate): > 100 µM
- TGI (A549 NSCLC): > 100 µM
- TGI (IGROV1 ovarian): > 100 µM
- TGI (K-562 leukemia): > 100 µM
- TGI (DU-145 prostate): > 100 µM
- TGI (U251 CNS): > 100 µM
- TGI (HS 578T breast): > 100 µM
- TGI (RPMI-8226 leukemia): > 100 µM
- TGI (HL-60(TB) leukemia): > 100 µM
- TGI (CCRF-CEM leukemia): > 100 µM
- TGI (OVCAR-4 ovarian): > 100 µM
- TGI (MOLT-4 leukemia): > 100 µM
- TGI (MALME-3M melanoma): > 100 µM
- TGI (KM12 colon): > 100 µM
- TGI (MDA-N): > 100 µM
- TGI (MDA-MB-231 breast): > 100 µM
- TGI (SK-OV-3 ovarian): > 100 µM
- TGI (SW-620 colon): > 100 µM
- TGI (NCI/ADR-RES ovarian): > 100 µM
- TGI (SF-539 CNS): > 100 µM
- TGI (OVCAR-5 ovarian): > 100 µM
- TGI (A498 renal): > 100 µM
- TGI (SK-MEL-2 melanoma): > 100 µM
- TGI (MDA-MB-435): > 100 µM
- TGI (SN12C renal): > 100 µM
- TGI (SK-MEL-5 melanoma): > 100 µM
- TGI (OVCAR-3 ovarian): > 100 µM
- TGI (HCT-15 colon): > 100 µM
- TGI (HCT-116 colon): > 100 µM
- TGI (HCC-2998 colon): > 100 µM
- TGI (NCI-H23 lung): > 100 µM
- TGI (COLO 205 colon): > 100 µM
- TGI (SF-268 CNS): > 100 µM
- TGI (LOX IMVI melanoma): > 100 µM
- TGI (UACC-257 melanoma): > 100 µM
- TGI (NCI-H226 lung): > 100 µM
- TGI (SNB-75 CNS): 99.7 µM
- TGI (MCF7 breast): > 100 µM
- TGI (RXF 393 renal): > 100 µM
- TGI (TK-10 renal): > 100 µM
- TGI (NCI-H522 lung): > 100 µM
- TGI (NCI-H460 lung): > 100 µM
- TGI (ACHN renal): > 100 µM
- TGI (EKVX NSCLC): > 100 µM

Structure (SMILES): COC(=O)C(Cc1ccccc1I)C1=CCC2(CC1)OCCO2 (stereo not drawn)
- TGI (SR leukemia): 52 µM
- TGI (M14 melanoma): 50.4 µM
- TGI (UACC-62 melanoma): 59.3 µM
- TGI (SF-295 CNS): > 100 µM
- TGI (T-47D breast): 39.7 µM
- TGI (786-0 renal): > 100 µM
- TGI (CAKI-1 renal): > 100 µM
- TGI (UO-31 renal): 66.3 µM
- TGI (SNB-19 CNS): 96.8 µM
- TGI (SK-MEL-28 melanoma): > 100 µM
- TGI (HOP-62 NSCLC): > 100 µM
- TGI (HT29 colon): > 100 µM
- TGI (OVCAR-8 ovarian): > 100 µM
- TGI (PC-3 prostate): 93.8 µM
- TGI (A549 NSCLC): 82.8 µM
- TGI (IGROV1 ovarian): > 100 µM
- TGI (K-562 leukemia): > 100 µM
- TGI (DU-145 prostate): > 100 µM
- TGI (U251 CNS): > 100 µM
- TGI (HS 578T breast): 77.5 µM
- TGI (RPMI-8226 leukemia): > 100 µM
- TGI (HL-60(TB) leukemia): 41.5 µM
- TGI (HOP-92 NSCLC): 97.2 µM
- TGI (CCRF-CEM leukemia): 81 µM
- TGI (OVCAR-4 ovarian): > 100 µM
- TGI (MOLT-4 leukemia): 56.8 µM
- TGI (MALME-3M melanoma): 56.5 µM
- TGI (KM12 colon): 76.2 µM
- TGI (MDA-N): 67.4 µM
- TGI (MDA-MB-231 breast): > 100 µM
- TGI (SK-OV-3 ovarian): > 100 µM
- TGI (SW-620 colon): > 100 µM
- TGI (NCI/ADR-RES ovarian): 55.8 µM
- TGI (SF-539 CNS): > 100 µM
- TGI (OVCAR-5 ovarian): 54.5 µM
- TGI (A498 renal): > 100 µM
- TGI (SK-MEL-2 melanoma): 75.4 µM
- TGI (MDA-MB-435): 44.8 µM
- TGI (SK-MEL-5 melanoma): 34.1 µM
- TGI (OVCAR-3 ovarian): 81.3 µM
- TGI (HCT-15 colon): > 100 µM
- TGI (HCC-2998 colon): > 100 µM
- TGI (NCI-H23 lung): 95.1 µM
- TGI (COLO 205 colon): 63 µM
- TGI (SF-268 CNS): > 100 µM
- TGI (LOX IMVI melanoma): 58.7 µM
- TGI (UACC-257 melanoma): 97.1 µM
- TGI (NCI-H226 lung): > 100 µM
- TGI (SNB-75 CNS): 57.4 µM
- TGI (MCF7 breast): 92.7 µM
- TGI (RXF 393 renal): 42.5 µM
- TGI (TK-10 renal): > 100 µM
- TGI (NCI-H522 lung): 53.7 µM
- TGI (NCI-H460 lung): > 100 µM
- TGI (ACHN renal): > 100 µM
- TGI (EKVX NSCLC): > 100 µM
